Measurements: PMC9127112, “Opening opportunities for Kd determination and screening of MHC peptide complexes” (Communications Biology, 2022)
Several values for one entry are separate records, joined by “and”; a condition that tells them apart may be missing. Equal values may be shown once. Ends that are not written are not given here. Peptide text beside a SMILES is read from it.

Tests used:
[1] = target: T1, dsA2: HLA-A*02:01(Y84C/A139C) disulfide mutant heavy chain / β2m complex (Homo sapiens, UniProt P04439, A163C/D140Y/D185E/D98H/E176V/E277Q/G131W/G231S/I119V/I121R/I166T/I218V/L300P/L318F/N151K/N90K/P208A/P217A/Q86G/Q94H/R138H/R169H/T345S/Y108C); assay: biochemical; type: binding
T1 construct: made in house; host or cells: Escherichia coli (pET3a)

[2] = target: T1, dsA2: HLA-A*02:01(Y84C/A139C) disulfide mutant heavy chain / β2m complex; assay: native mass spectrometry (nMS) of peptide binding to empty dsA2;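 note: native nano-electrospray MS on Q-Tof II in positive mode, dsA2 at 10 µM with peptide 50–200 µM, incubated ≥10 min on ice, argon collision gas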
[3] = target: T2, dsA2: HLA-A*02:01(Y84C/A139C) disulfide mutant heavy chain / β2m complex (Homo sapiens, UniProt P04439, D140Y/D185E/D98H/E176V/E277Q/G131W/G231S/I119V/I121R/I166T/I218V/L300P/L318F/N151K/N90K/P208A/P217A/Q86G/Q94H/R138H/R169H/T345S/A163C/Y108C); assay: as above; conditions: for AUC dsA2 (empty) / AUC dsA2/erucamide / AUC dsA2/pep / AUC dsA2/pep/pep: cone 150 V, ratio 1:5, raw data, mean of >=3 measurements
T2 construct: made in house; host or cells: Escherichia coli (pET3a)

[4] = target: empty disulfide-stabilized HLA-A*02:01(Y84C/A139C) in complex with beta-2 microglobulin (human); assay: native MS
[5] = target: empty disulfide-stabilized HLA-A*02:01(Y84C/A139C) in complex with beta-2 microglobulin (human); assay: isothermal analysis of nanoscale differential scanning fluorimetry (iDSF)

| Compound | Kd [1] [µM] | AUC dsA2 (empty) ([3]; acceleration voltage 10 V) [%] | AUC dsA2/erucamide ([3]; acceleration voltage 10 V) [%] | AUC dsA2/pep ([3]; acceleration voltage 10 V) | AUC dsA2/pep/pep ([3]; acceleration voltage 10 V) | AUC dsA2 (empty) ([3]; acceleration voltage 25 V) [%] | AUC dsA2/erucamide ([3]; acceleration voltage 25 V) [%] | AUC dsA2/pep ([3]; acceleration voltage 25 V) [%] | AUC dsA2/pep/pep ([3]; acceleration voltage 25 V) [%] | AUC dsA2 (empty) ([3]; acceleration voltage 50 V) [%] | AUC dsA2/erucamide ([3]; acceleration voltage 50 V) [%] | AUC dsA2/pep ([3]; acceleration voltage 50 V) [%] | AUC dsA2/pep/pep ([3]; acceleration voltage 50 V) [%] | Kd [5] [µM] | Kd ([2]; Kd,high) [µM] | Kd ([2]; Kd,low) [µM] | other results |
| --- | --- | --- | --- | --- | --- | --- | --- | --- | --- | --- | --- | --- | --- | --- | --- | --- | --- |
| CC(C)C[C@H](NC(=O)[C@@H](N)CC(N)=O)C(=O)N[C@H](C(=O)N1CCC[C@H]1C(=O)O)C(C)C [NP4] (H-NLVP-OH) | 50 | 55 | 33.8 | 11% | 0.6% | 57.8 | 31.1 | 10.4 | 0.69 | 92.4 | 4.3 | 2.6 | 0.8 |  |  |  | Kd [2]: 350 µM and 100 µM |
| Ac-NV9-NH2, NV9 with acetylated N-terminus and amidated C-terminus (peptide) |  |  |  |  |  |  |  |  |  |  |  |  |  | 4 |  |  | Kd [4]: 80 µM |
| CC(C)[C@H](N)C(=O)N[C@@H](C)C(=O)N[C@H](C(=O)N[C@H](C(=O)O)C(C)C)[C@@H](C)O [VV4] (H-VATV-OH) | 50 | 68 | 18.093 | 14% | 0% | 68 | 17.6 | 14 | 0 | 92 | 4.0 | 4.1 | 0 |  |  |  |  |
| MVATV [MV5] | 1.6 | 64 | 10.4 | 23% | 3.2% | 63 | 10.4 | 23 | 3.7 | 80 | 3.3 | 15 | 1.5 |  | 110 | 3 |  |
| NA7 (NLVPMVA), truncated NV9 variant (peptide) |  |  |  |  |  |  |  |  |  |  |  |  |  | 3.6 |  |  |  |
| PV6 (PMVATV), truncated NV9 variant (peptide) |  |  |  |  |  |  |  |  |  |  |  |  |  | 15 |  |  |  |
| NV6 (NLVPMV), truncated NV9 variant (peptide) |  |  |  |  |  |  |  |  |  |  |  |  |  | 9 |  |  |  |
| VV7 (VPMVATV), truncated NV9 variant (peptide) |  |  |  |  |  |  |  |  |  |  |  |  |  | 7.8 |  |  |  |
| LVPMVATV [LV8] | 0.008 | 42 | 1.7 | 54% | 2.8% | 40 | 1.5 | 54 | 3.9 | 53 | 0.4 | 45 | 1.6 |  |  |  |  |
| GLGGGGGGV [GV9] |  | 52 | 4.3 | 43 ± 2% and 43% | 1.5 ± 0.4% and 1.5% | 50 | 5 | 43 | 2.2 | 62 | 1.7 | 35 | 1.1 |  |  |  | Kd ([1]; dsA2 2.2 µM, 20 mM Tris pH 8, 150 mM NaCl, twofold serial dilution, 11 concentrations, two independent measurements, values marked * (below 200 nM) not reliable, read-out: Kd,iDSF): 0.36 µM; Kd ([2]; read-out: Kd,high): 35 µM; Kd ([2]; read-out: Kd,low): 0.5 µM |
| NLVPMVAT [NT8] | 2.6 | 47.3 | 24 | 28% | 0.6% | 50 | 21 | 28.2 | 1 | 75 | 1.6 | 23 | 0.2 |  |  |  | Kd [2]: 92 µM and 30 µM |
| MV5 (MVATV), truncated NV9 variant (peptide) |  |  |  |  |  |  |  |  |  |  |  |  |  | 1.6 |  |  |  |
| PMVATV [PV6] | 15 | 68 | 19 | 12% | 0.5% | 68 | 19 | 13 | 0.5 | 90 | 5 | 5 | 0.1 |  | 300 | 15 |  |
| CCCCCCCC/C=C\CCCCCCCCCCCC(N)=O [erucamide, (Z)-docos-13-enamide] |  |  |  |  |  |  |  |  |  |  |  |  |  |  |  |  | occupancy of dsA2 with erucamide ([3]; no peptide, linear extrapolation to cone voltage <=48 V (experimentally unfeasible)): 100% |
| VPMVATV [VV7] | 7.8 | 61.8 | 19 | 17% | 1.7% | 62 | 20.2 | 17 | 1.16 | 96 | 1.3 | 3 | 0 |  | 180 | 15 |  |
| NLVPMVA [NA7] | 3.6 | 75 | 8 | 16% | 0.8% | 68 | 11 | 19 | 1.4 | 86 | 1.8 | 12 | 0.5 |  | 210 | 2 |  |
| NM5 (NLVPM), truncated NV9 variant (peptide) |  |  |  |  |  |  |  |  |  |  |  |  |  | 11 |  |  |  |
| VV4 (VATV), truncated NV9 variant (peptide) |  |  |  |  |  |  |  |  |  |  |  |  |  | 50 |  |  |  |
| NLVPMV [NV6] | 9 | 66 | 24 | 10% | 0.5% | 66 | 22 | 11 | 0.69 | 91.2 | 2.9 | 4.1 | 1.9 |  | 380 | 30 |  |
| NLVPM [NM5] | 11 | 62 | 19 | 17.9% | 1.0% | 64 | 17 | 18.0 | 1.2 | 90.3 | 1.3 | 8.1 | 0.3 |  | 180 | 15 |  |
